According to the supplement of paper PMC10307832:

Assays:
Experiment in all cases: relative viability (nuclei count vs DMSO), 5 days (fraction); higher = more cells survive
201T = test system: 201T
Method in brief: (§1)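 Lung cancer cell lines were pin-tool dosed in 1536-well plates on the day after seeding, with either a lone drug or a fixed anchor-drug dose plus five library-drug doses (not always all listed) in √10 steps. Nuclei were counted on 4× images after 5 days. Relative viability is the ratio of treated-well to vehicle-well nuclei counts, with each value a median of duplicate plates.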

BEN = test system: BEN
Method in brief: as §1

COR-L 105 = test system: COR-L 105
Method in brief: as §1

EKVX = test system: EKVX
Method in brief: as §1

EPLC-272H = test system: EPLC-272H
Method in brief: as §1

H3255 = test system: H3255
Method in brief: as §1

HCC-44 = test system: HCC-44
Method in brief: as §1

HCC-827 = test system: HCC-827
Method in brief: as §1

HOP-62 = test system: HOP-62
Method in brief: as §1

LCLC-97TM1 = test system: LCLC-97TM1
Method in brief: as §1

LOU-NH91 = test system: LOU-NH91
Method in brief: as §1

LU99A = test system: LU99A
Method in brief: as §1

NCI-H1395 = test system: NCI-H1395
Method in brief: as §1

NCI-H1437 = test system: NCI-H1437
Method in brief: as §1

NCI-H1666 = test system: NCI-H1666
Method in brief: as §1

NCI-H1975 = test system: NCI-H1975
Method in brief: as §1

NCI-H2085 = test system: NCI-H2085
Method in brief: as §1

NCI-H2087 = test system: NCI-H2087
Method in brief: as §1

NCI-H358 = test system: NCI-H358
Method in brief: as §1

NCI-H647 = test system: NCI-H647
Method in brief: as §1

PC-3 [JPC-3] = test system: PC-3 [JPC-3]
Method in brief: as §1

SW 1573 = test system: SW 1573
Method in brief: as §1

Work on `C=C1C(=O)O[C@@H](CCCCCCCC)[C@@H]1C(=O)O` [C-75] + CS(=O)(=O)N1CCN(Cc2cc3nc(-c4cccc5[nH]ncc45)nc(N4CCOCC4)c3s2)CC1 [Pictilisib] (partner 1 µM) yielded a relative viability (201T; first compound 0.08 µM) of 0.697, a relative viability (201T; first compound 0.253 µM) of 0.782 and a relative viability (201T; first compound 0.8 µM) of 0.628. The relative viability (201T; first compound 2.53 µM) was 0.673, the relative viability (201T; first compound 8 µM) was 0.719 and the relative viability (BEN; first compound 0.08 µM) was 0.541. The relative viability (BEN; first compound 0.253 µM) was 0.651, the relative viability (BEN; first compound 0.8 µM) was 0.538 and the relative viability (BEN; first compound 2.53 µM) was 0.553. The relative viability (BEN; first compound 8 µM) was 0.443, the relative viability (COR-L 105; first compound 0.08 µM) was 0.437 and the relative viability (COR-L 105; first compound 0.253 µM) was 0.422. It also gave a relative viability (COR-L 105; first compound 0.8 µM) of 0.469, a relative viability (COR-L 105; first compound 2.53 µM) of 0.432 and a relative viability (COR-L 105; first compound 8 µM) of 0.343. It also gave a relative viability (EKVX; first compound 0.08 µM) of 0.436, a relative viability (EKVX; first compound 0.253 µM) of 0.448 and a relative viability (EKVX; first compound 0.8 µM) of 0.426. It also gave a relative viability (EKVX; first compound 2.53 µM) of 0.458, a relative viability (EKVX; first compound 8 µM) of 0.452 and a relative viability (EPLC-272H; first compound 0.08 µM) of 0.336. For the same compound, the relative viability (EPLC-272H; first compound 0.253 µM) was 0.308, the relative viability (EPLC-272H; first compound 0.8 µM) was 0.298 and the relative viability (EPLC-272H; first compound 2.53 µM) was 0.265. It also gave a relative viability (EPLC-272H; first compound 8 µM) of 0.232, a relative viability (H3255; first compound 0.08 µM) of 0.464 and a relative viability (H3255; first compound 0.253 µM) of 0.572. It also gave a relative viability (H3255; first compound 0.8 µM) of 0.458, a relative viability (H3255; first compound 2.53 µM) of 0.494 and a relative viability (H3255; first compound 8 µM) of 0.447. It also gave a relative viability (HCC-44; first compound 0.08 µM) of 0.65, a relative viability (HCC-44; first compound 0.253 µM) of 0.599 and a relative viability (HCC-44; first compound 0.8 µM) of 0.558. It also gave a relative viability (HCC-44; first compound 2.53 µM) of 0.622, a relative viability (HCC-44; first compound 8 µM) of 0.644 and a relative viability (HCC-827; first compound 0.08 µM) of 0.954. For the same compound, the relative viability (HCC-827; first compound 0.253 µM) was 0.95, the relative viability (HCC-827; first compound 0.8 µM) was 1.14 and the relative viability (HCC-827; first compound 2.53 µM) was 0.694. For the same compound, the relative viability (HCC-827; first compound 8 µM) was 0.915, the relative viability (HOP-62; first compound 0.08 µM) was 0.732 and the relative viability (HOP-62; first compound 0.253 µM) was 0.927. It also gave a relative viability (HOP-62; first compound 0.8 µM) of 0.788, a relative viability (HOP-62; first compound 2.53 µM) of 0.73 and a relative viability (HOP-62; first compound 8 µM) of 0.545. It also gave a relative viability (LCLC-97TM1; first compound 0.08 µM) of 0.234, a relative viability (LCLC-97TM1; first compound 0.253 µM) of 0.215 and a relative viability (LCLC-97TM1; first compound 0.8 µM) of 0.265. The relative viability (LCLC-97TM1; first compound 2.53 µM) was 0.187, the relative viability (LCLC-97TM1; first compound 8 µM) was 0.18 and the relative viability (LOU-NH91; first compound 0.08 µM) was 0.555. The relative viability (LOU-NH91; first compound 0.253 µM) was 0.602, the relative viability (LOU-NH91; first compound 0.8 µM) was 0.446 and the relative viability (LOU-NH91; first compound 2.53 µM) was 0.406. For the same compound, the relative viability (LOU-NH91; first compound 8 µM) was 0.461, the relative viability (LU99A; first compound 0.08 µM) was 0.281 and the relative viability (LU99A; first compound 0.253 µM) was 0.306. It also gave a relative viability (LU99A; first compound 0.8 µM) of 0.305, a relative viability (LU99A; first compound 2.53 µM) of 0.286 and a relative viability (LU99A; first compound 8 µM) of 0.307. It also gave a relative viability (NCI-H1395; first compound 0.08 µM) of 0.599, a relative viability (NCI-H1395; first compound 0.253 µM) of 0.572 and a relative viability (NCI-H1395; first compound 0.8 µM) of 0.539. It also gave a relative viability (NCI-H1395; first compound 2.53 µM) of 0.474, a relative viability (NCI-H1395; first compound 8 µM) of 0.7 and a relative viability (NCI-H1437; first compound 0.08 µM) of 0.489. The relative viability (NCI-H1437; first compound 0.253 µM) was 0.402, the relative viability (NCI-H1437; first compound 0.8 µM) was 0.464 and the relative viability (NCI-H1437; first compound 2.53 µM) was 0.472. It also gave a relative viability (NCI-H1437; first compound 8 µM) of 0.491, a relative viability (NCI-H1666; first compound 0.08 µM) of 0.49 and a relative viability (NCI-H1666; first compound 0.253 µM) of 0.555. The relative viability (NCI-H1666; first compound 0.8 µM) was 0.295, the relative viability (NCI-H1666; first compound 2.53 µM) was 0.41 and the relative viability (NCI-H1666; first compound 8 µM) was 0.346. It also gave a relative viability (NCI-H1975; first compound 0.08 µM) of 0.286, a relative viability (NCI-H1975; first compound 0.253 µM) of 0.282 and a relative viability (NCI-H1975; first compound 0.8 µM) of 0.278. The relative viability (NCI-H1975; first compound 2.53 µM) was 0.326, the relative viability (NCI-H1975; first compound 8 µM) was 0.347 and the relative viability (NCI-H2085; first compound 0.08 µM) was 0.504. The relative viability (NCI-H2085; first compound 0.253 µM) was 0.543, the relative viability (NCI-H2085; first compound 0.8 µM) was 0.433 and the relative viability (NCI-H2085; first compound 2.53 µM) was 0.339. The relative viability (NCI-H2085; first compound 8 µM) was 0.413, the relative viability (NCI-H2087; first compound 0.08 µM) was 0.853 and the relative viability (NCI-H2087; first compound 0.253 µM) was 0.844. For the same compound, the relative viability (NCI-H2087; first compound 0.8 µM) was 0.733, the relative viability (NCI-H2087; first compound 2.53 µM) was 0.428 and the relative viability (NCI-H2087; first compound 8 µM) was 0.859. The relative viability (NCI-H358; first compound 0.08 µM) was 0.365, the relative viability (NCI-H358; first compound 0.253 µM) was 0.348 and the relative viability (NCI-H358; first compound 0.8 µM) was 0.312. The relative viability (NCI-H358; first compound 2.53 µM) was 0.326, the relative viability (NCI-H358; first compound 8 µM) was 0.361 and the relative viability (NCI-H647; first compound 0.08 µM) was 0.449. For the same compound, the relative viability (NCI-H647; first compound 0.253 µM) was 0.427, the relative viability (NCI-H647; first compound 2.53 µM) was 0.396 and the relative viability (NCI-H647; first compound 8 µM) was 0.498. It also gave a relative viability (PC-3 [JPC-3]; first compound 0.08 µM) of 0.817, a relative viability (PC-3 [JPC-3]; first compound 0.253 µM) of 0.637 and a relative viability (PC-3 [JPC-3]; first compound 0.8 µM) of 0.674. For the same compound, the relative viability (PC-3 [JPC-3]; first compound 2.53 µM) was 0.822, the relative viability (PC-3 [JPC-3]; first compound 8 µM) was 0.876 and the relative viability (SW 1573; first compound 0.08 µM) was 0.555. It also gave a relative viability (SW 1573; first compound 0.253 µM) of 0.511, a relative viability (SW 1573; first compound 0.8 µM) of 0.482 and a relative viability (SW 1573; first compound 2.53 µM) of 0.346. The relative viability (SW 1573; first compound 8 µM) was 0.365.
